Where a name gives a salt, the structure may show the parent alone.
System: EmGFP-HaloTag
Assay: Test Example 1: HeLa cells stably expressing EmGFP-HaloTag, Western blot GFP/actin (Testing Method A)
Assay type: cell-based
Settings: 1 uM, 24 hours, 1 or less = degradation promoted
Description: Test Example 1: Evaluation Method Using Cell Stably Expressing EmGFP-HaloTag (Testing Method A)
HeLa cells stably expressing EmGFP-HaloTag were inoculated to Dulbecco's Modified Eagle Medium (DMEM) and cultured for 24 hours. Then, a test compound (specifically, compounds of Examples 1 to 7, 9 to 11, 13 to 15, 17 to 20, 24 to 27, 29, 32 to 33, 36 to 42, 44 to 46 and 56) was added thereto at the final concentration shown in Table 2, followed by incubation for 24 hours under conditions of 37° C./5% CO2. The cells were washed with PBS three times and treated with a cell lysis solution containing a proteolytic enzyme inhibitor to obtain a cell extract. The cell extract was subjected to SDS-PAGE. After the electrophoresis, GFP and actin were detected by Western blot. The ratio of the GFP/actin value of the drug-treated cells to the GFP/actin value of a control group in drug-untreated cells was regarded as an activity value. A value of 1 or less represents that degradation of EmGFP-HaloTag was promoted.

| Compound | Activity value (GFP/actin of drug-treated cells relative to drug-untreated control) |
| --- | --- |
| CC(=O)N[C@@H](CSc1nc2c(=O)[nH]c(N)nc2n1Cc1ccc(S(C)(=O)=O)cc1)C(=O)NCCOCCOCCOCCOCCOCCCCCCCl [Example 39, N^2-acetyl-S-(2-amino-9-(4-(methylsulfonyl)benzyl)-6-oxo-6,9-dihydro-1H-purin-8-yl)-N-(21-chloro-3,6,9,12,15-pentaoxahenicos-1-yl)-L-cysteinamide] | 0.7 |
| CC(=O)N[C@@H](CSc1nc2c(=O)[nH]c(N)nc2n1Cc1cccc(Cl)c1)C(=O)NCCOCCOCCOCCOCCOCCCCCCCl [Example 37, N^2-acetyl-S-(2-amino-9-(3-chlorobenzyl)-6-oxo-6,9-dihydro-1H-purin-8-yl)-N-(21-chloro-3,6,9,12,15-pentaoxahenicos-1-yl)-L-cysteinamide] | 0.7 |
| CC(=O)N[C@@H](CSc1nc2c(=O)[nH]c(N)nc2n1Cc1ccc(C)cc1)C(=O)NCCOCCOCCOCCOCCOCCCCCCCl [Example 25, N^2-acetyl-S-(2-amino-9-(4-methylbenzyl)-6-oxo-6,9-dihydro-1H-purin-8-yl)-N-(21-chloro-3,6,9,12,15-pentaoxahenicos-1-yl)-L-cysteinamide] | 0.9 |
| Nc1nc2c(nc(-c3cn(CCOCCOCCOCCOCCOCCCCCCCl)nn3)n2Cc2ccc(F)cc2)c(=O)[nH]1 [Example 15, 2-Amino-8-(1-(21-chloro-3,6,9,12,15-pentaoxahenicos-1-yl)-1H-1,2,3-triazol-4-yl)-9-(4-fluorobenzyl)-1,9-dihydro-6H-purin-6-one] | 0.9 |
| Nc1nc2c(nc(-c3cccc(OCCOCCOCCOCCOCCOCCCCCCCl)c3)n2Cc2ccc(F)cc2)c(=O)[nH]1 [Example 10] | 0.3 |
| CC(=O)N[C@@H](CSc1nc2c(=O)[nH]cnc2n1Cc1ccc(F)cc1)C(=O)NCCOCCOCCOCCOCCOCCCCCCCl [Example 26, N^2-Acetyl-N-(21-chloro-3,6,9,12,15-pentaoxahenicos-1-yl)-S-(9-(4-fluorobenzyl)-6-oxo-6,9-dihydro-1H-purin-8-yl)-L-cysteinamide] | 0.5 |
| CC(=O)N[C@@H](CSc1nc2cncnc2n1Cc1ccc(F)cc1)C(=O)NCCOCCOCCOCCOCCOCCCCCCCl [Example 18, N^2-Acetyl-N-(21-chloro-3,6,9,12,15-pentaoxahenicos-1-yl)-S-(9-(4-fluorobenzyl)-9H-purin-8-yl)-L-cysteinamide] | 0.1 |
| CC(=O)Nc1nc2c(nc(SC[C@H](NC(C)=O)C(=O)NCCOCCOCCOCCOCCOCCCCCCCl)n2Cc2ccc(F)cc2)c(=O)[nH]1 [Example 27, S-(2-Acetamido-9-(4-fluorobenzyl)-6-oxo-6,9-dihydro-1H-purin-8-yl)-N^2-acetyl-N-(21-chloro-3,6,9,12,15-pentaoxahenicos-1-yl)-L-cysteinamide] | 0.7 |
| CC(=O)N[C@@H](CSc1nc2c(=O)n(C)c(=O)n(C)c2n1Cc1ccc(F)cc1)C(=O)NCCOCCOCCOCCOCCOCCCCCCCl [Example 13, N^2-Acetyl-N-(21-chloro-3,6,9,12,15-pentaoxahenicos-1-yl)-S-(9-(4-fluorobenzyl)-1,3-dimethyl-2,6-dioxo-2,3,6,9-tetrahydro-1H-purin-8-yl)-L-cysteinamide] | 0.1 |
| Nc1nc2c(nc(-c3cnn(CCOCCOCCOCCOCCOCCCCCCCl)c3)n2Cc2ccc(F)cc2)c(=O)[nH]1 [Example 14, 2-amino-8-(1-(21-chloro-3,6,9,12,15-pentaoxahenicos-1-yl)-1H-pyrazol-4-yl)-9-(4-fluorobenzyl)-1,9-dihydro-6H-purin-6-one] | 0.2 |
| CC(=O)N[C@@H](CSc1nc2c(=O)[nH]c(N)nc2n1Cc1ccccc1Cl)C(=O)NCCOCCOCCOCCOCCOCCCCCCCl [Example 24, N^2-acetyl-S-(2-amino-9-(2-chlorobenzyl)-6-oxo-6,9-dihydro-1H-purin-8-yl)-N-(21-chloro-3,6,9,12,15-pentaoxahenicos-1-yl)-L-cysteinamide] | 0.5 |
| CC(=O)N[C@@H](CSc1nc2c(=O)[nH]c(N)nc2n1Cc1cccnc1)C(=O)NCCOCCOCCOCCOCCOCCCCCCCl [Example 41, N^2-acetyl-S-(2-amino-6-oxo-9-(pyridin-3-ylmethyl)-6,9-dihydro-1H-purin-8-yl)-N-(21-chloro-3,6,9,12,15-pentaoxahenicos-1-yl)-L-cysteinamide trifluoroacetic acid salt] | 0.5 |
| CC(=O)N[C@@H](CSc1nc2c(N)ncnc2n1Cc1ccc(F)cc1)C(=O)NCCOCCOCCOCCOCCOCCCCCCCl [Example 17, N^2-Acetyl-S-(6-amino-9-(4-fluorobenzyl)-9H-purin-8-yl)-N-(21-chloro-3,6,9,12,15-pentaoxahenicos-1-yl)-L-cysteinamide trifluoroacetate] | 0.7 |

Same assay, conditions: 5 uM, 24 hours, 1 or less = degradation promoted

| Compound | Activity value (GFP/actin of drug-treated cells relative to drug-untreated control) |
| --- | --- |
| Nc1nc2c(nc(NCC(=O)NCCOCCOCCOCCOCCOCCCCCCCl)n2Cc2ccc(F)cc2)c(=O)[nH]1 [Example 9, N^2-(2-amino-9-(4-fluorobenzyl)-6-oxo-6,9-dihydro-1H-purin-8-yl)-N-(21-chloro-3,6,9,12,15-pentaoxahenicos-1-yl)glycinamide] | 0.47 |
| Nc1nc2c(nc(SCC(=O)NCCOCCOCCOCCOCCOCCCCCCCl)n2Cc2ccc(F)cc2)c(=O)[nH]1 [Example 7] | 0.79 |

Same assay, conditions: 10 uM, 24 hours, 1 or less = degradation promoted

| Compound | Activity value (GFP/actin of drug-treated cells relative to drug-untreated control) |
| --- | --- |
| CC(=O)N[C@@H](CSc1nc2c(=O)[nH]c(N)nc2n1Cc1ccc(Cl)cc1)C(=O)NCCOCCOCCOCCOCCOCCCCCCCl [Example 1, N^2-Acetyl-S-(2-amino-9-(4-chlorobenzyl)-6-oxo-6,9-dihydro-1H-purin-8-yl)-N-(21-chloro-3,6,9,12,15-pentaoxahenicos-1-yl)-L-cysteinamide] | 0.7 |
| Nc1nc2c(nc(CCC(=O)NCCOCCOCCOCCOCCOCCCCCCCl)n2Cc2ccc(F)cc2)c(=O)[nH]1 [Example 6, 3-(2-Amino-9-(4-fluorobenzyl)-6-oxo-6,9-dihydro-1H-purin-8-yl)-N-(21-chloro-3,6,9,12,15-pentaoxahenicos-1-yl)propanamide] | 0.94 |
| CC(=O)N[C@@H](CSc1nc2c(N)nc(N)nc2n1Cc1ccc(F)cc1)C(=O)NCCOCCOCCOCCOCCOCCCCCCCl [Example 45, N^2-Acetyl-N-(21-chloro-3,6,9,12,15-pentaoxahenicos-1-yl)-S-(2,6-diamino-9-(4-fluorobenzyl)-9H-purin-8-yl)-L-cysteinamide] | 0.7 |
| CC(=O)N[C@@H](CSc1nc2c(=O)[nH]c(N)nc2n1Cc1ccccc1)C(=O)NCCOCCOCCOCCOCCOCCCCCCCl [Example 20, N^2-Acetyl-S-(2-amino-9-benzyl-6-oxo-6,9-dihydro-1H-purin-8-yl)-N-(21-chloro-3,6,9,12,15-pentaoxahenicos-1-yl)-L-cysteinamide Trifluoroacetate] | 0.2 |
| CC(=O)N[C@@H](CSc1nc2c(=O)[nH]c(N)nc2n1Cc1ccc(C#N)cc1)C(=O)NCCOCCOCCOCCOCCOCCCCCCCl [Example 36, N^2-acetyl-S-(2-amino-9-(4-cyanobenzyl)-6-oxo-6,9-dihydro-1H-purin-8-yl)-N-(21-chloro-3,6,9,12,15-pentaoxahenicos-1-yl)-L-cysteinamide] | 0.9 |
| Nc1nc2c(nc(SCCC(=O)NCCOCCOCCOCCOCCOCCCCCCCl)n2Cc2ccc(F)cc2)c(=O)[nH]1 [Example 2] | 0.9 |

Same assay, conditions: 100 uM, 24 hours, 1 or less = degradation promoted

| Compound | Activity value (GFP/actin of drug-treated cells relative to drug-untreated control) |
| --- | --- |
| Nc1nc2c(nc(C(=O)N3CCCCC3C(=O)NCCOCCOCCOCCOCCOCCCCCCCl)n2Cc2ccc(F)cc2)c(=O)[nH]1 (stereo not shown) [Example 46, 1-((2-Amino-9-(4-fluorobenzyl)-6-oxo-6,9-dihydro-1H-purin-8-yl)carbonyl)-N-(21-chloro-3,6,9,12,15-pentaoxahenicos-1-yl)piperidine-2-carboxamide] | 0.2 |
| COc1ccc(Cn2c(SC[C@H](NC(C)=O)C(=O)NCCOCCOCCOCCOCCOCCCCCCCl)nc3c(=O)[nH]c(N)nc32)cc1 [Example 38, N^2-acetyl-S-(2-amino-9-(4-methoxybenzyl)-6-oxo-6,9-dihydro-1H-purin-8-yl)-N-(21-chloro-3,6,9,12,15-pentaoxahenicos-1-yl)-L-cysteinamide] | 0.8 |
| CC(=O)N[C@@H](CSc1nc2c(=O)[nH]c(N)nc2n1CC1CCOCC1)C(=O)NCCOCCOCCOCCOCCOCCCCCCCl [Example 29, N^2-acetyl-S-(2-amino-6-oxo-9-(tetrahydro-2H-pyran-4-ylmethyl)-6,9-dihydro-1H-purin-8-yl)-N-(21-chloro-3,6,9,12,15-pentaoxahenicos-1-yl)-L-cysteinamide] | 0.5 |
| Nc1nc2c(nc(-c3ccc(C(=O)NCCOCCOCCOCCOCCOCCCCCCCl)cc3)n2Cc2ccc(F)cc2)c(=O)[nH]1 [Example 3, 4-(2-Amino-9-(4-fluorobenzyl)-6-oxo-6,9-dihydro-1H-purin-8-yl)-N-(21-chloro-3,6,9,12,15-pentaoxahenicos-1-yl)benzamide] | 0.3 |

— US11986480B2, “Heterocyclic compound” (TOHOKU UNIVERSITY, priority 2017, dated 2024)
